The supplement of paper PMC8253809

What was measured:
[1] = tested on: SUDIPGIV (diffuse intrinsic pontine glioma line); assay: EC50 (inflection of fitted growth-inhibition curve) (log10 M)
Outline: (§1)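 Treatment used a pin tool and a 10-point threefold dilution series, mean top concentration 35 μM, run in triplicate on patient-derived pHGG/DIPG cell lines and astrocyte controls in 1% Geltrex-coated 384-well plates. Plates were kept at 37 °C, 5% CO2 for 7 days (iAstro: 3 days). Log2-transformed CellTiter-Glo luminescence was scaled per plate to % activity between negative (solvent) and positive control wells and pooled before fitting. EC50 and maximal response (yFin) came from the three- or four-parameter log-logistic fit chosen by lowest AICc.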

[2] = tested on: DIPGX7 (H3.3 K27M diffuse intrinsic pontine glioma line); assay: as above
Outline: as §1

[3] = tested on: HGGX39 (paediatric high-grade glioma line); assay: as above
Outline: as §1

[4] = tested on: DIPGX29 (H3.3 K27M diffuse intrinsic pontine glioma line); assay: as above
Outline: as §1

[5] = tested on: DIPGX9 (diffuse intrinsic pontine glioma line); assay: as above
Outline: as §1

[6] = tested on: SUDIPGXXI (diffuse intrinsic pontine glioma line); assay: as above
Outline: as §1

[7] = tested on: HGGX6 (H3.3 G34R paediatric high-grade glioma line); assay: as above
Outline: as §1

[8] = tested on: HABS (astrocyte control); assay: as above
Outline: as §1

[9] = tested on: SUDIPGXIII (diffuse intrinsic pontine glioma line); assay: as above
Outline: as §1

[10] = tested on: iAstro (astrocyte control); assay: as above
Outline: as §1

[11] = tested on: SUDIPGVI (diffuse intrinsic pontine glioma line); assay: as above
Outline: as §1

[12] = tested on: SUDIPGXVII (diffuse intrinsic pontine glioma line); assay: as above
Outline: as §1

[13] = tested on: HGGX2 (paediatric high-grade glioma line); assay: as above
Outline: as §1

[14] = tested on: HGGX42 (H3.3 G34R paediatric high-grade glioma line); assay: as above
Outline: as §1

[15] = tested on: SUDIPGXIX (diffuse intrinsic pontine glioma line); assay: as above
Outline: as §1

[16] = tested on: SUDIPGIV; assay: area under dose-response curve of % growth inhibition (log2 RLU vs DMSO / staurosporine), 1e-11 to 1e-4 M (% x log10 M); higher = more growth inhibition
Outline: (§2)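 Patient-derived pHGG/DIPG cell lines and astrocytes were plated in 384-well plates coated with 1% Geltrex and treated in triplicate with a 10-point threefold dilution series whose mean top concentration was 35 μM, for 7 days (3 days for iAstro) at 37 °C and 5% CO2. CellTiter-Glo luminescence was log2-transformed and scaled on each plate to % activity between solvent and positive controls. Area under the curve came from the trapezoid rule applied to a fitted log-logistic curve, or to a smoothing spline where the sigmoid fit failed.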

[17] = tested on: DIPGX7; assay: as above
Outline: as §2

[18] = tested on: HGGX39; assay: as above
Outline: as §2

[19] = tested on: DIPGX29; assay: as above
Outline: as §2

[20] = tested on: DIPGX9; assay: as above
Outline: as §2

[21] = tested on: SUDIPGXXI; assay: as above
Outline: as §2

[22] = tested on: HGGX6; assay: as above
Outline: as §2

[23] = tested on: HABS; assay: as above
Outline: as §2

[24] = tested on: SUDIPGXIII; assay: as above
Outline: as §2

[25] = tested on: iAstro; assay: as above
Outline: as §2

[26] = tested on: SUDIPGVI; assay: as above
Outline: as §2

[27] = tested on: DIPGX37 (H3.3 K27M diffuse intrinsic pontine glioma line); assay: as above
Outline: as §2

[28] = tested on: SUDIPGXVII; assay: as above
Outline: as §2

[29] = tested on: HGGX2; assay: as above
Outline: as §2

[30] = tested on: HGGX42; assay: as above
Outline: as §2

[31] = tested on: SUDIPGXIX; assay: as above
Outline: as §2

Row | Structure (SMILES) | EC50 (log10 M) [1] | EC50 (log10 M) [2] | EC50 (log10 M) [3] | EC50 (log10 M) [4] | EC50 (log10 M) [5] | EC50 (log10 M) [6] | EC50 (log10 M) [7] | EC50 (log10 M) [8] | EC50 (log10 M) [9] | EC50 (log10 M) [10] | EC50 (log10 M) [11] | EC50 (log10 M) [12] | EC50 (log10 M) [13] | EC50 (log10 M) [14] | EC50 (log10 M) [15] | area under dose-response curve [16] | area under dose-response curve [17] | area under dose-response curve [18] | area under dose-response curve [19] | area under dose-response curve [20] | area under dose-response curve [21] | area under dose-response curve [22] | area under dose-response curve [23] | area under dose-response curve [24] | area under dose-response curve [25] | area under dose-response curve [26] | area under dose-response curve [27] | area under dose-response curve [28] | area under dose-response curve [29] | area under dose-response curve [30] | area under dose-response curve [31]
1 | CC(C)(C)c1cnc(CSc2cnc(NC(=O)C3CCNCC3)s2)o1 | -6.15 | -5.84 | -6.02 | -6.2 | -6.71 | -6.91 | -5.8 | -6.64 | -5.95 | -6.22 | -6.37 | -6.08 | -6.28 | -6.48 | -6.11 | 221 | 208 | 171 | 185 | 281 | 320 | 151 | 121 | 176 | 55.9 | 196 | 192 | 199 | 130 | 216 | 245
2 | CC(C)c1c2cc(-c3ccnc(NC4CCC(NC5CCOCC5)CC4)n3)ccc2nn1C (configuration not stated) | -6.83 | -6.89 | -6.34 | -6.63 | -7.17 | -7.19 | -6.69 | -7.04 | -6.79 | -7.45 | -7 | -6.93 | -6.63 | -7.07 | -7.04 | 256 | 270 | 189 | 222 | 283 | 319 | 210 | 135 | 249 | 91.7 | 252 | 225 | 263 | 198 | 252 | 278
3 | COc1cc(F)ccc1-c1ncnc(Nc2cccc(CS(C)(=N)=O)c2)n1 (configuration not stated) | -5.38 | -5.15 | -5.23 | -5.41 | -5.9 | -5.99 | -5.44 | -5.83 | -4.98 | -6.51 | -5.33 | -5.15 | -5.75 | -6.01 | -5.55 | 156 | 143 | 82.1 | 109 | 195 | 226 | 121 | 104 | 84.4 | 57.6 | 120 | 128 | 109 | 100 | 134 | 156
4 | Cc1ccc2nc(NCCN)c3ncc(C)n3c2c1 | -4.93 | -4.87 | -4.91 | -4.95 | -5.01 | -5.23 | -4.92 | -4.94 | -4.89 | -5.39 | -4.96 | -4.88 | -5.19 | -5 | -4.93 | 113 | 96.7 | 52.5 | 94.6 | 99.8 | 143 | 75.1 | 54.2 | 89.5 | 35.1 | 67 | 93.7 | 78.2 | 54.2 | 83.7 | 79.1
5 | c1ccc2c(-c3cnn4cc(-c5ccc(N6CCNCC6)cc5)cnc34)ccnc2c1 | -5.52 | -5.63 | -5.65 | -5.73 | -5.68 | -6.41 | -5.58 | -5.19 | -5.56 | -5.51 | -5.58 | -5.61 | -5.78 | -5.68 | -5.66 | 171 | 183 | 147 | 165 | 202 | 291 | 146 | 129 | 162 | 137 | 166 | 163 | 172 | 185 | 171 | 187
6 | COc1ccc(C[C@H](NC(=O)[C@H](C)NC(=O)CN2CCOCC2)C(=O)N[C@@H](Cc2ccccc2)C(=O)C2(C)CO2)cc1 (stereo in doubt) [ONX-0914] | -6.84 | -6.25 | -6.36 | -6.14 | -6.6 | -7.49 | -5.97 | -6.19 | -6.56 | -7.31 | -6.72 | -5.91 | -7.17 | -6.73 | -6.58 | 255 | 220 | 209 | 156 | 252 | 328 | 182 | 206 | 230 | 243 | 233 | 242 | 175 | 277 | 186 | 245
7 | CN(C)C/C=C/C(=O)Nc1cc2c(Nc3ccc(F)c(Cl)c3)ncnc2cc1O[C@H]1CCOC1 [AFATINIB] | -4.82 | -4.85 | -4.73 | -4.73 | -4.88 | -5.4 | -4.75 | -4.84 | -4.71 | -4.88 | -4.84 | -4.81 | -4.92 | -4.86 | -4.83 | 90.9 | 108 | 99.2 | 110 | 144 | 168 | 86.1 | 102 | 85.6 | 80.2 | 130 | 116 | 87.7 | 115 | 108 | 123
8 | O=C(Nc1c[nH]nc1-c1nc2ccc(CN3CCOCC3)cc2[nH]1)NC1CC1 [AT9283] | -5.66 | -4.88 | -6.03 | -5.17 | -5.66 | -6.69 | -5.15 | -5.83 | -4.79 | -5.54 | -4.97 | -4.95 | -4.91 | -5.4 | -5.33 | 167 | 143 | 186 | 150 | 203 | 310 | 134 | 173 | 77.4 | 42.3 | 97.6 | 132 | 128 | 87.8 | 178 | 184
9 | CC(=O)OC[C@H]1O[C@@H]([S-])[C@H](OC(C)=O)[C@@H](OC(C)=O)[C@@H]1OC(C)=O.CCP(CC)CC.[Au+] [AURANOFIN] | -5.57 | -5.9 | -5.52 | -6.49 | -5.78 | -6.66 | -6.35 | -5.29 | -5.39 | -5.84 | -5.76 | -5.45 | -6.28 | -6.16 | -5.93 | 198 | 228 | 165 | 232 | 209 | 323 | 218 | 146 | 168 | 196 | 202 | 219 | 169 | 248 | 243 | 219
10 | COC(=O)[C@]12CCC(C)(C)C[C@H]1[C@H]1C(=O)C=C3[C@@]4(C)C=C(C#N)C(=O)C(C)(C)[C@@H]4CC[C@@]3(C)[C@]1(C)CC2 [BARDOXOLONE METHYL] | -5.65 | -5.56 | -6.01 | -6.17 | -5.73 | -6.24 | -5.93 | -5.66 | -5.62 | -5.99 | -5.63 | -5.59 | -5.74 | -5.83 | -5.53 | 201 | 221 | 185 | 189 | 185 | 231 | 168 | 174 | 155 | 189 | 155 | 185 | 173 | 181 | 203 | 207
11 | CC(C)(C)OC(=O)Nc1ccc(-c2cc(C(=O)NCCCCCCC(=O)NO)no2)cc1 [BML-281] | -5.19 | -4.92 | -4.94 | -5.53 | -5.48 | -6.1 | -5.04 | -4.89 | -4.89 | -5.37 | -4.92 | -5.09 | -5.43 | -5.45 | -5 | 104 | 111 | 94.4 | 85.5 | 146 | 212 | 55.5 | 83.1 | 54.5 | 61.4 | 65.9 | 56.6 | 63.9 | 92 | 49 | 87.7
12 | CC(=O)c1ccc2c(c1)c1cc(C(C)=O)ccc1n2CCNC(C)C [CBL-0137] | -5.61 | -5.22 | -5.42 | -5.42 | -6.06 | -6.51 | -5.37 | -6.08 | -5.14 | -6.54 | -5.09 | -5.23 | -5.6 | -5.67 | -6.28 | 156 | 137 | 148 | 135 | 218 | 277 | 122 | 155 | 123 | 57.3 | 109 | 199 | 129 | 134 | 154 | 223
